Measured values taken from ChEMBL document CHEMBL5653631, “A Potent and Selective ULK1 Inhibitor Suppresses Autophagy and Sensitizes Cancer Cells to Nutrient Stress” (iScience, 2018).
Each block holds one compound with its values, some of them ahead of it.

Columns and labels:
[1] = target: T1, cGMP-dependent protein kinase 1 (Homo sapiens) (UniProt Q13976); assay: Inhibition of human recombinant PKG1 at 500 nM related to control ULK1
T1 sequence (whole entry): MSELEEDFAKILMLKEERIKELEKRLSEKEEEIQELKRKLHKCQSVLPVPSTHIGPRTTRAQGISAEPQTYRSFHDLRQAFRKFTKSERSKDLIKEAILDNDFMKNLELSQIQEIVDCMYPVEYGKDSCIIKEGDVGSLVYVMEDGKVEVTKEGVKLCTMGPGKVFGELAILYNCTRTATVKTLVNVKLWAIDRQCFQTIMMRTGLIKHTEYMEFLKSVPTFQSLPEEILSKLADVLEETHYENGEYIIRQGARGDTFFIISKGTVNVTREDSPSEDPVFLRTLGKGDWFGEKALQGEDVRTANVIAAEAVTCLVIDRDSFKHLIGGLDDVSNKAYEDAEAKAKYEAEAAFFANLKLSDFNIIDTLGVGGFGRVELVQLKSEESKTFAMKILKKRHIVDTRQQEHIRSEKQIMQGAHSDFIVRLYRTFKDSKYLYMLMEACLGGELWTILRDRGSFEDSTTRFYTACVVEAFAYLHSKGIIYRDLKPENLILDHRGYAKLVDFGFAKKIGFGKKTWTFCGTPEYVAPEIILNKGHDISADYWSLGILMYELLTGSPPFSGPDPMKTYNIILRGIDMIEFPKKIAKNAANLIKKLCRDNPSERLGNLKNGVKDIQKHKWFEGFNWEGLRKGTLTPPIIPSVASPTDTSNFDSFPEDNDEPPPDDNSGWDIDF

[2] = target: Eukaryotic translation initiation factor 2-alpha kinase 1 (Homo sapiens) (UniProt Q9BQI3); assay: Inhibition of human recombinant HRI at 500 nM in presence of ATP by radiometric assay relative to control
Sequence of Eukaryotic translation initiation factor 2-alpha kinase 1 (Homo sapiens) (Q9BQI3 whole entry): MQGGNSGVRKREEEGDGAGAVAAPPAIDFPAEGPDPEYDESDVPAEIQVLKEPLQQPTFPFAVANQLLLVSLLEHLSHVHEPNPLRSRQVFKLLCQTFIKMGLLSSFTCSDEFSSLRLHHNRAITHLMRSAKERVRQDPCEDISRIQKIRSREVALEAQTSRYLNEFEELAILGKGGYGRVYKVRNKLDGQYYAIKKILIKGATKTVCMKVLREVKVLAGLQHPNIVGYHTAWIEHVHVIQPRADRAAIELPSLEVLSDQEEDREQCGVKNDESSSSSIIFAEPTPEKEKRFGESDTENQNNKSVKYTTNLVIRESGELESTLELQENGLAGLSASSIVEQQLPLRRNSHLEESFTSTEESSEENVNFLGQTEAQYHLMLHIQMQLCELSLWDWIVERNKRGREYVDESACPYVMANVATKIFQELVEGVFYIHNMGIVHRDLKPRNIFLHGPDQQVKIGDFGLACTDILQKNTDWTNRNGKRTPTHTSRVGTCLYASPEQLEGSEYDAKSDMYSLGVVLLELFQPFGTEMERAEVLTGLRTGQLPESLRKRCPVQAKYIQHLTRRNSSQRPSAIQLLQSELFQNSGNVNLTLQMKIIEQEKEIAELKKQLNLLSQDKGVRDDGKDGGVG

[3] = target: Calcium/calmodulin-dependent protein kinase type II subunit gamma (Homo sapiens) (UniProt Q13555); assay: Inhibition of human recombinant CaMK2g at 500 nM in presence of ATP by radiometric assay relative to control
[4] = target: Serine/threonine-protein kinase pim-1 (Homo sapiens) (UniProt P11309); assay: Inhibition of human recombinant PIM1 at 500 nM related to control ULK1
Sequence of Serine/threonine-protein kinase pim-1 (Homo sapiens) (P11309 whole entry, looked up): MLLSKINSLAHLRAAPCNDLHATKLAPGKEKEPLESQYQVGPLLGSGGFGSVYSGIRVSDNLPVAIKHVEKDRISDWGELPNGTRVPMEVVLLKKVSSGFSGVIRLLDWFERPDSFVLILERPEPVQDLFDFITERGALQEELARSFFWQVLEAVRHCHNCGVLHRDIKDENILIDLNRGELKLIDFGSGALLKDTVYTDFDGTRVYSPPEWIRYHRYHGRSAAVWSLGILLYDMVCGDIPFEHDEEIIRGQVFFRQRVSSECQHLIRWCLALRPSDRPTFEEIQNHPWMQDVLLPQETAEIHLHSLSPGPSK

[5] = target: Dual specificity protein kinase CLK2 (Homo sapiens) (UniProt P49760); assay: Inhibition of human recombinant CLK2 at 15 nM in presence of ATP by radiometric assay relative to control
Sequence of Dual specificity protein kinase CLK2 (Homo sapiens) (P49760 whole entry, looked up): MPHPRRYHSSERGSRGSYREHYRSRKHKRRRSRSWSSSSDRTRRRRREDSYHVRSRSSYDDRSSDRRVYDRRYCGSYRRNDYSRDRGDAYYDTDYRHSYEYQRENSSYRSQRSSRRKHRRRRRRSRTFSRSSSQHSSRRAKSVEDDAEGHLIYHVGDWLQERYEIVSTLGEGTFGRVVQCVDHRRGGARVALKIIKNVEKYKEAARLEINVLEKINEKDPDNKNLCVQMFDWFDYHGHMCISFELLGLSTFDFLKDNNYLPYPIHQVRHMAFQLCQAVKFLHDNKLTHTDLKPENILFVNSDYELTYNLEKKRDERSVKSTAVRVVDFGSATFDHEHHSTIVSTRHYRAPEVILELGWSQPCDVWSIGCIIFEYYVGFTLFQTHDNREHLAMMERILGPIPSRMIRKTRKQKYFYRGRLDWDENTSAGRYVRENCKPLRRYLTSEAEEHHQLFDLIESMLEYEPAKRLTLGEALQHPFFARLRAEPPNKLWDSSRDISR

[6] = target: Serine/threonine-protein kinase 25 (Homo sapiens) (UniProt O00506); assay: Inhibition of human recombinant YSK1 at 15 nM in presence of ATP by radiometric assay relative to control
Sequence of Serine/threonine-protein kinase 25 (Homo sapiens) (O00506 whole entry, looked up): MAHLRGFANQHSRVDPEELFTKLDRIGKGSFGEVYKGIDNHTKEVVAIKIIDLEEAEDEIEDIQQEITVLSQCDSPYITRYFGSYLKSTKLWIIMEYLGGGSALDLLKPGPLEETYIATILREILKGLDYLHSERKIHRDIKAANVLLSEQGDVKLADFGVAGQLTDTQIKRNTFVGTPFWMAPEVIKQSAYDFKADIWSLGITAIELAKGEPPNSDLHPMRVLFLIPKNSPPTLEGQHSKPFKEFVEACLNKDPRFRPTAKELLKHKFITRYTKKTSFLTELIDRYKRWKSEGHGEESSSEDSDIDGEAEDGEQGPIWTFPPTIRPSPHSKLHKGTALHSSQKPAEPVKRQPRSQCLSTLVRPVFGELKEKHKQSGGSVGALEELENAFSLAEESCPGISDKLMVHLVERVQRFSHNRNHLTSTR

[7] = target: STE20-like serine/threonine-protein kinase (Homo sapiens) (UniProt Q9H2G2); assay: Inhibition of human recombinant SLK at 15 nM in presence of ATP by radiometric assay relative to control
Sequence of STE20-like serine/threonine-protein kinase (Homo sapiens) (Q9H2G2 whole entry, looked up, canonical isoform): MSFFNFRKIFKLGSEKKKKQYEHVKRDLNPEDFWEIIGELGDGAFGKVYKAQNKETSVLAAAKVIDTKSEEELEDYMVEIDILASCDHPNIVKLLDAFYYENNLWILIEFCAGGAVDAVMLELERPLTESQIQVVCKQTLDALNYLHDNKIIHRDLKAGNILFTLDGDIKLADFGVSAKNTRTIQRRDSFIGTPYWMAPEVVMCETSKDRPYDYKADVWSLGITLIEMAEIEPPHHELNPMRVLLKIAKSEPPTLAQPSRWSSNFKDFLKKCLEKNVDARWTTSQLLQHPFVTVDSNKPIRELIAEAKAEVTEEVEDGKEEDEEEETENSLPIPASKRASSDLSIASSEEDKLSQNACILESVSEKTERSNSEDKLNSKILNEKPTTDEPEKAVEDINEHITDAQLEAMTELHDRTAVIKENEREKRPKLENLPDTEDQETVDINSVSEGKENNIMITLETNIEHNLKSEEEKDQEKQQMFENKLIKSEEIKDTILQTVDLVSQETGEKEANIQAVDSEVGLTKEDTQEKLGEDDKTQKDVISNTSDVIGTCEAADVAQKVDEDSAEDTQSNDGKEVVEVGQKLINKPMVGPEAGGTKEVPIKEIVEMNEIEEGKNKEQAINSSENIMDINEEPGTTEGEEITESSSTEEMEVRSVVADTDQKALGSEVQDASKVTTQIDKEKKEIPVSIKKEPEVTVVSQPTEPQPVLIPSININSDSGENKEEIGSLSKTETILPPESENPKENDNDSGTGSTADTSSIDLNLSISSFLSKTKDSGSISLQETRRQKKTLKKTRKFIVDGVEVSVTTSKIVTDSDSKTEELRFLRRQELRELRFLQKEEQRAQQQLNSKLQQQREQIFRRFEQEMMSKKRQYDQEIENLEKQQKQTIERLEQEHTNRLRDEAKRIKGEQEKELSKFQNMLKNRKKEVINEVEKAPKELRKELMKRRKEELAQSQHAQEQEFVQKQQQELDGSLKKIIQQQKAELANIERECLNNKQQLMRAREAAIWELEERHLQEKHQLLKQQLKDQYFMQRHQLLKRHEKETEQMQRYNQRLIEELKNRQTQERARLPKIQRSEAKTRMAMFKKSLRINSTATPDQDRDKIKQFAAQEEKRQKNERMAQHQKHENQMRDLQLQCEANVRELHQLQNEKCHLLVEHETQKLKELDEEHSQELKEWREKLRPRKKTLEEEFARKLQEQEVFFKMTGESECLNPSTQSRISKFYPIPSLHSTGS

[8] = target: Phosphorylase b kinase gamma catalytic chain, skeletal muscle/heart isoform (Homo sapiens) (UniProt Q16816); assay: Inhibition of human recombinant PHKg1 at 15 nM related to control ULK1
Sequence of Phosphorylase b kinase gamma catalytic chain, skeletal muscle/heart isoform (Homo sapiens) (Q16816 whole entry, looked up, canonical isoform): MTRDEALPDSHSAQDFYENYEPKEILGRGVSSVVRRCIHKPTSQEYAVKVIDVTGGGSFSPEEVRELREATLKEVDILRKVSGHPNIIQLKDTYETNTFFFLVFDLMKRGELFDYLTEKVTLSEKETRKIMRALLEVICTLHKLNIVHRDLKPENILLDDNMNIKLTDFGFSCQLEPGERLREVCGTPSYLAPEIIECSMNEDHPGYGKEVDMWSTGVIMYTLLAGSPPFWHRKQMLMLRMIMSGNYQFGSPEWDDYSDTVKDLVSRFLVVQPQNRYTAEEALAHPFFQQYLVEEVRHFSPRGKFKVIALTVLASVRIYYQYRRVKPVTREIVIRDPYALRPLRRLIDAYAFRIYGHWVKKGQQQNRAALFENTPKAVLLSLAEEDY

[9] = target: Serine/threonine-protein kinase PAK 3 (Homo sapiens) (UniProt O75914); assay: Inhibition of human recombinant PAK3 at 40 nM related to control ULK1
Sequence of Serine/threonine-protein kinase PAK 3 (Homo sapiens) (O75914 whole entry, looked up): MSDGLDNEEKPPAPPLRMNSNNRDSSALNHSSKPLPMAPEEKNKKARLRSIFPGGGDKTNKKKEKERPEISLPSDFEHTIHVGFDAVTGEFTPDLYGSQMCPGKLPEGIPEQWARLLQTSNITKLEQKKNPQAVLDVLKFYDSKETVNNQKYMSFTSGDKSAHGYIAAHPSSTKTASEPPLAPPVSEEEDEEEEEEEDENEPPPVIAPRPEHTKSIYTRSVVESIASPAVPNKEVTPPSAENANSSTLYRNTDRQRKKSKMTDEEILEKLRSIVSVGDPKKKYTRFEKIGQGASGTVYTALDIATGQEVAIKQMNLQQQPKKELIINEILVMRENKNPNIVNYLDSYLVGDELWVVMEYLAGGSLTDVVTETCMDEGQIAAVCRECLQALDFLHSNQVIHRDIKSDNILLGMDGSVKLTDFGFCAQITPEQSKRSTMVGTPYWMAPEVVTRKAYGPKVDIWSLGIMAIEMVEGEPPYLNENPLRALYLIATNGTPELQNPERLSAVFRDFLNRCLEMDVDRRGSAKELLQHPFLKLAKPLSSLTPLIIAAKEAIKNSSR

[10] = target: T2, Bone morphogenetic protein receptor type-2 (Homo sapiens) (UniProt Q13873); assay: Inhibition of human recombinant BMPR2 at 40 nM related to control ULK1
T2 sequence (whole entry): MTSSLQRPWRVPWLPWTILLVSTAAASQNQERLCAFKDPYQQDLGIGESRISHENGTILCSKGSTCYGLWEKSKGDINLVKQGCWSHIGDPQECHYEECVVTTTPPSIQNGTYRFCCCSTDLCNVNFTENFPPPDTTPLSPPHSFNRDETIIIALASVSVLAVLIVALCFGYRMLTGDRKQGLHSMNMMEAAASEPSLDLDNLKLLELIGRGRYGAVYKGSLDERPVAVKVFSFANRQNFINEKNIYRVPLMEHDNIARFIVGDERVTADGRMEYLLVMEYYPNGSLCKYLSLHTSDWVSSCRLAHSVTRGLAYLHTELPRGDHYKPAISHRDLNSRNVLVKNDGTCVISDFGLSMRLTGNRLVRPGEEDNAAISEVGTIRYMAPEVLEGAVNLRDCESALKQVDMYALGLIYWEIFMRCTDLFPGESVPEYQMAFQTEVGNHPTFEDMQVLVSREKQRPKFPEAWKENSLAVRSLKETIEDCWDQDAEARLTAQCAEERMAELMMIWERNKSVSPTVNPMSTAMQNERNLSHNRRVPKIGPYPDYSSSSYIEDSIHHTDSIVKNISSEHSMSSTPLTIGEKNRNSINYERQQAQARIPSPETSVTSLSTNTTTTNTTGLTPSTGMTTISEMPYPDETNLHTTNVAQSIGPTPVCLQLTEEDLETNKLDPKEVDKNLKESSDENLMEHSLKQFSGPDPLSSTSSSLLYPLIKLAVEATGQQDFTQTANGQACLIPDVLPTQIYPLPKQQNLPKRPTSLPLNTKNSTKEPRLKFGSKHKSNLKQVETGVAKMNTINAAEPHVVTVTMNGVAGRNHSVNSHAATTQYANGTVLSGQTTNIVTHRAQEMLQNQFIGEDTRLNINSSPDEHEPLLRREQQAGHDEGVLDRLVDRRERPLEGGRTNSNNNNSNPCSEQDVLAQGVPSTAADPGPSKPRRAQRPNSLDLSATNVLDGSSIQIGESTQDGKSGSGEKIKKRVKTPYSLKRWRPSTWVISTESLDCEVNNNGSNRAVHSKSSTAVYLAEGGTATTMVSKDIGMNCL

[11] = target: Serine/threonine-protein kinase PAK 6 (Homo sapiens) (UniProt Q9NQU5); assay: Inhibition of human recombinant PAK6 at 40 nM in presence of ATP by radiometric assay relative to control
Sequence of Serine/threonine-protein kinase PAK 6 (Homo sapiens) (Q9NQU5 whole entry, looked up): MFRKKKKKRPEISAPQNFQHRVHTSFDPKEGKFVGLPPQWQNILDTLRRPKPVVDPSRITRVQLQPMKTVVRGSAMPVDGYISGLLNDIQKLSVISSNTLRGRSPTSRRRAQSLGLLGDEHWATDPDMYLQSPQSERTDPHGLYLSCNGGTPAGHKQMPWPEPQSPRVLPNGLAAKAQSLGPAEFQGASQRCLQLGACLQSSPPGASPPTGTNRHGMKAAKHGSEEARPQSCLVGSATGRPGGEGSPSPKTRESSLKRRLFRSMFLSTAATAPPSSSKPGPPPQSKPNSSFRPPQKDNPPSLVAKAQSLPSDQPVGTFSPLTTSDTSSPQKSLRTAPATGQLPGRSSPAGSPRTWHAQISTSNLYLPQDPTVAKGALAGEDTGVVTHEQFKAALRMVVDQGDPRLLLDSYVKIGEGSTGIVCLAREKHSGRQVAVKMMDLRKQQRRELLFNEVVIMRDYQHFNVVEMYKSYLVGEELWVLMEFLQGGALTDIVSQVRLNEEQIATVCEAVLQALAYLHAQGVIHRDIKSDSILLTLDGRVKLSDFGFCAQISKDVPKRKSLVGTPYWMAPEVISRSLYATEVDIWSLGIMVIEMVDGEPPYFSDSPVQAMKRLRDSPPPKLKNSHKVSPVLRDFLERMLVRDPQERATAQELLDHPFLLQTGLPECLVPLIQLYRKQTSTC

- fold change (FC) [1]: 0.05
- inhibition [2]: 0%
- inhibition [3]: 2%
- fold change (FC) [4]: 0.03
SMILES: CNC(=O)c1ccccc1Oc1nc(Nc2cc(OC)c(OC)c(OC)c2)ncc1Br

- inhibition [5]: 29%
- inhibition [6]: 0%
- inhibition [7]: 22%
- fold change (FC) [8]: 0.58
SMILES: CC(C)[C@H](NC(=O)c1cc(-c2cnn3cc(-c4ccc(OCCN5CCCCC5)cc4)cnc23)cs1)C(F)(F)F

- fold change (FC) [9]: 0
- fold change (FC) [10]: 0.08
- inhibition [11]: 7%
SMILES: O=C(N[C@@H](C1CC1)C(F)(F)F)c1cc(-c2cnn3cc(-c4ccc(F)cc4)cnc23)cs1
